# From paper PMC11148080, “Ru(II)-based complexes containing 2-thiouracil derivatives suppress liver cancer stem cells by targeting NF-κB and Akt/mTOR signaling” (Cell Death Discovery, 2024)
# Columns and labels:
# BAD KO SV40 MEF = test: Alamar Blue survival curves; assay type: cell-based, mouse; conditions: for involvement of proapoptotic protein BAD in cell death: BAD KO SV40 MEF vs WT SV40 MEF; for IC50: BAD KO SV40 MEF, 72 h
# Experimental: (§1) A Quantification of mitochondrial membrane depolarization in HepG2 cells after 24 h of incubation with complex 1 or 2, as determined by flow cytometry. B and C Quantification of PARP (Asp214) cleavage in HepG2 cells after 24 h of incubation with complex 1 (8 μM) or 2 (6 μM), as determined by flow cytometric analysis. MFI: Mean fluorescence intensity. D Survival curves of WT SV40 MEFs and BAD KO SV40 MEFs upon treatment with complexes 1 and 2 and 5-fluorouracil (5-FU, used as a positive control). The curves were obtained from at least three biological replicates carried out in duplicate using the Alamar Blue assay after 72 h of incubation. E DNA fragmentation (sub-G0/G1 cells) and cell cycle distribution (G0/G1, S and G2/M phases) of WT SV40 MEFs and BAD KO SV40 MEFs after 48 h of incubation with complexes 1 (10 μM) and 2 (10 μM) or 5-FU (40 μM). The vehicle (0.2% DMSO) was used as a negative control (CTL). The data are expressed as the mean ± S.E.M. of three biological replicates carried out in duplicate. *P < 0.05 compared to CTL by one-way analysis of variance (ANOVA) followed by Dunnett’s multiple comparisons test.
# (§2) The Alamar Blue assay was used to measure cell viability, as previously described. Adherent cells were seeded in 96-well plates at a density of 7 × 10^3 cells per well, and suspended cells were seeded at 3 × 10^4 cells per well. Drugs were added to each well after overnight incubation for adherent cells or immediately after seeding for suspension cells, and incubation continued for an additional 72 h. […] Four hours (for cell lines) or 24 h (for primary cultures) before the end of incubation, 20 μL of resazurin (30 μM) (Sigma‒Aldrich Co. St. Louis, MO, USA) was added to each well. The absorbance at 570 and 600 nm was measured using a SpectraMax 190 microplate reader (Molecular Devices, Sunnyvale, CA, USA).
# WT SV40 MEF = test: Alamar Blue survival curves; assay type: cell-based, mouse; conditions: 72 h
# Experimental: as §1, §2
# HepG2 cells [1] = test: NF-κB and Akt/mTOR signaling protein levels by flow cytometry; assay type: cell-based, human; conditions: HepG2, 24 h; for level of Akt1 / level of phospho-4EBP1 (T36/T45) / level of phospho-Akt (S473) / level of phospho-Akt (T308) / level of phospho-PI3K p85/p55 (T458/T199) / level of phospho-elF4E (S209) / level of phospho-mTOR (S2448): 8 μM complex 1, 6 μM complex 2
# Experimental: (§3) To stain intracellular proteins, the cells were harvested and resuspended in 0.5-1 mL of 4% formaldehyde for 10 min at 37 °C. The tube was then placed on ice for 1 min, after which the cells were prechilled and permeabilized using a sequence of 100% (30 min) to 90% (30 min) methanol with gentle mixing. After washing with incubation buffer (0.5% bovine serum albumin in PBS), primary antibodies were added and incubated for 1 h at room temperature. Finally, the cells were washed with PBS, and flow cytometry was used to measure cell fluorescence.
# For all flow cytometry analyses, cellular fluorescence was measured using a BD LSRFortessa cytometer, BD FACSDiva software (BD Biosciences) and FlowJo software 10 (FlowJo LLC; Ashland, OR, USA). A minimum of 10,000 events were obtained per sample for intracellular staining, and a minimum of 30,000 events per sample were acquired for cell surface protein staining. Doublets were removed using FSC-A vs FCS-H and SCC-A vs SCC-H. Cellular debris was excluded from the analysis.
# HepG2 cells [2] = test: EMT markers vimentin and E-cadherin by flow cytometry; assay type: cell-based, human; conditions: HepG2, 24 h; 6 μM complex 2
# Experimental: To stain the cell surface proteins, the cells were washed with an incubation buffer (0.5% bovine serum albumin in PBS), and then antibodies were added and incubated for 1 h at room temperature. The cells were then washed with PBS, and the fluorescence signal was measured by flow cytometry. CD133 and CD44 were quantified in YO-PRO-1 (Sigma‒Aldrich Co.) negative cells.
# as §3
SMILES,involvement of proapoptotic protein BAD in cell death (BAD KO SV40 MEF),IC50 (BAD KO SV40 MEF) [µM],IC50 (WT SV40 MEF) [µM],level of phospho-NF-κB p65 (S529) (HepG2 cells [1]; 8 μM complex 1),level of phospho-S6 (S235/S236) (HepG2 cells [1]; 8 μM complex 1),level of Akt1 (HepG2 cells [1]),level of phospho-4EBP1 (T36/T45) (HepG2 cells [1]),level of phospho-Akt (S473) (HepG2 cells [1]),level of phospho-Akt (T308) (HepG2 cells [1]),level of phospho-PI3K p85/p55 (T458/T199) (HepG2 cells [1]),level of phospho-elF4E (S209) (HepG2 cells [1]),level of phospho-mTOR (S2448) (HepG2 cells [1]),E-cadherin expression (HepG2 cells [2]),vimentin expression (HepG2 cells [2])
"F[P-](F)(F)(F)(F)F.O=c1cc[nH]c([S][Ru+])n1.c1ccc(-c2ccccn2)nc1.c1ccc(P(c2ccccc2)c2ccccc2)cc1.c1ccc(P(c2ccccc2)c2ccccc2)cc1 [Complex 1, trans-[Ru(2TU)(PPh3)2(bipy)]PF6]",independent of the protein BAD,4.6,5.4,reduced,reduced,reduced,not affected,reduced,not affected,not affected,not affected,reduced,,
"Cc1cc(=O)nc([S][Ru+])[nH]1.F[P-](F)(F)(F)(F)F.c1ccc(-c2ccccn2)nc1.c1ccc(P(c2ccccc2)c2ccccc2)cc1.c1ccc(P(c2ccccc2)c2ccccc2)cc1 [Complex 2, trans-[Ru(6m2TU)(PPh3)2(bipy)]PF6]",independent of the protein BAD,4.1,5.1,,,reduced,not affected,reduced,not affected,not affected,not affected,reduced,increased,reduced
